Reference: patent US8895717B2, “Delivery of siRNA by neutral lipid compositions” (The Board of Regents of the University of Texas System, priority 2005, dated 2014)
d = 2'-deoxy (DNA); r = 2'-OH (RNA)

Key:
FAK = assay: In vivo down regulation of FAK by siRNA in DOPC (Western blot, IHC); design: species or system human; conditions: for FAK expression at the conclusion of the therapy studies: HeyA8, IHC
Experimental: (§1) siRNA for in vivo delivery was incorporated into the phospholipid 1,2-dioleoyl-sn-glycero-3-phosphatidylcholine (DOPC). DOPC and siRNA were mixed in the presence of excess tertiary-butanol at a ratio of […], as previously described (Landen et al., 2005). Tween-20 was added to the mixture at a ratio of 1:19. The mixture was vortexed, frozen in an acetone/dry ice bath, and lyophilized. Before in vivo administration, this preparation was hydrated with normal (0.9%) saline at a concentration of 15 μg/ml to achieve the desired dose of 150-200 μl per injection. To estimate the quantity of siRNA not taken up by liposomes free siRNA was separated from liposomes by using filter units with a 30,000 nominal molecular weight limit (Millipore Corp, Billerica, Mass.). The liposomal suspension was added to the filters and centrifuged at 5,000 g for 40 min at room temperature. Fractions were collected, the material trapped in the filter was reconstituted with 0.9% saline, and the amount of siRNA in the collected fraction and eluent were measured by spectrophotometry.
Cells were lysed in modified RIPA buffer (50 mM Tris, 150 mM NaCl, 1% triton, 0.5% deoxycholate plus 25 µg/ml leupeptin, 10 µg/ml aprotinin, 2 mM EDTA, and 1 mM sodium orthovanadate (Sigma Chemical Co, St. Louis, Mo.) as previously described (Sood et al., 2004; Sood et al., 2002). A sample was removed from culture dishes by cell scraping and centrifuged at 12,500 rpm for 30 min. The […] protein concentration of the supernatant was determined using a bicinchoninic acid protein assay reagent kit (Pierce, Rockford, Ill.), and whole cell lysates were analyzed by 7.5% SDS-PAGE. Samples were then transferred to nitrocellulose membrane by semi-dry transfer (BioRad Laboratories, Hercules, Calif.). Membranes were blocked with 5% nonfat milk, and incubated with 0.25 μg/mL anti-FAK antibody (Biosource, International Camarillo, Calif.) for 1 h at room temperature. Antibody was detected with 0.167 μg/mL HRP-conjugated anti-mouse secondary antibody (The Jackson Laboratory, Bar Harbor, Me.) and developed with an enhanced chemiluminescence detection kit (Pierce). Equal loading was confirmed by detection of β-actin (0.1 μg/ml, anti-β-actin antibody, Sigma Chemical). Densitometric analysis was performed using the Scion Imaging software (Scion Corporation, Frederick, Md.).
To evaluate the therapeutic effect of the combination of FAK siRNA and docetaxel in a mouse model, preliminary dose-response studies were performed experiments for FAK siRNA. HeyA8 cells were implanted i.p. and treatment was initiated 21 days following tumor injection when i.p. tumors could be assessed by palpation. Mice were randomly distributed into three groups (n=10 per group) and were treated with a single dose of PBS, control siRNA or FAK siRNA at 150 μg/kg in 200 μl volume. Following treatment, 3 mice were sacrificed at definite time-points (24 h, 48 h, 96 h and 6 days). Fluorescent IHC analysis was performed on any excised peritoneal cavity tumors as described below.
The inventors investigated the inhibition of FAK expression in combination with docetaxel and the in vivo therapeutic potential. Prior to initiating therapy studies, the ability of FAK-targeted siRNA incorporated in DOPC to down-regulate FAK in vivo was assessed. Nude mice bearing intraperitoneal HeyA8 tumors were injected with a single dose of FAK siRNA i.p., and tumors were harvested 1, 2, 4, and 6 days after injection for Western blot analysis and immunohistochemistry for assessing level of FAK expression. […] FAK expression was not affected by control siRNA. Twice weekly administration of siRNA (150 μg/kg) was selected as an exemplary dosing schedule for subsequent therapy experiments.

SKOV3ip1 cells = assay: In vivo therapy with DOPC-FAK siRNA, SKOV3ip1 model; design: species or system nude mice; conditions: for Incidence (%) / No. Nodules: siRNA in DOPC twice weekly, docetaxel 50 μg weekly
Experimental: as §1
(§2) To produce tumors, SKOV3ip1, Hey A8-MDR cells (1×10^6 cells/0.2 ml of HBSS) and Hey A8 cells (2.5×10^5 cells/0.2 ml of HBSS) were injected interperitoneally (i.p.) into the mice. For in vivo injections, cells were trypsinized and centrifuged at 1000 rpm for 7 minutes at 4° C., washed twice with PBS and reconstituted in serum-free Hank's balanced salt solution (HBSS, Life Technologies, Carlsbad, Calif.). Only single-cell suspensions with >95% viability, as determined by trypan blue exclusion, were used for the in vivo injections. Mice (n=10 per group) were monitored for adverse effects of therapy and were sacrificed on day 35 (SKOV3ip1) or day 28 (HeyA8 or HeyA8-MDR) or when any of the mice began to appear moribund. Mouse weight, tumor weight, and tumor distribution were recorded. Tissue specimens were snap frozen for lysate preparation, fixed in formalin for paraffin embedding or frozen on OCT compound (Miles, Inc., Elkhart, Ind.) for frozen slide preparation.
(§3) Based on the results of preliminary dose-response studies, a series of three separate therapy studies were initiated using the optimal FAK siRNA dosage. Tumor cells were injected i.p. and 7 days later, the mice were randomly assigned to five treatment groups: empty liposome twice weekly, non-specific control […] siRNA (3 μg) twice weekly, control FAK siRNA (3 μg) twice weekly in combination with 50 μg docetaxel weekly, FAK siRNA twice weekly and FAK siRNA (3 μg) twice weekly in addition to 50 μg docetaxel weekly.
(§4) The SKOV3ip1 or HeyA8 ovarian cancer cells were implanted into the peritoneal cavity of athymic nude mice for experiments designed to test the therapeutic potential of FAK-targeted inhibition of gene expression. Seven days later, therapy was started according to the following five treatment groups: 1) empty liposomes; 2) non-specific siRNA-DOPC; 3) docetaxel plus non-specific siRNA-DOPC; 4) FAK targeted siRNA-DOPC; and 5) docetaxel plus FAK-targeted siRNA-DOPC. The animals were sacrificed after 4 weeks of therapy and a necropsy was performed. The data for these therapies' effects on SKOV3ip1 and HeyA8 are summarized in FIGS. 6A and 6B, respectively. […] Treatment with FAK siRNA alone or docetaxel plus control siRNA were effective in inhibiting tumor growth (54 to 74%) in both cell lines compared with control (FIG. 13).

HeyA8 cells = assay: In vivo therapy with DOPC-FAK siRNA, HeyA8 model; design: species or system nude mice; conditions: for Incidence (%) / No. Nodules: siRNA in DOPC twice weekly, docetaxel 50 μg weekly
Experimental: as §1, §2, §3, §4

HeyA8-MDR cells = assay: In vivo therapy with DOPC-FAK siRNA, HeyA8-MDR model; design: species or system nude mice; conditions: for Incidence (%) / No. Nodules: siRNA in DOPC twice weekly, docetaxel 50 μg weekly
Experimental: as §1, §2, §3
Chemotherapy-resistance is a common clinical problem in the management of ovarian carcinoma. Despite high response rates with initial therapy, most patients develop recurrent tumors that are resistant to taxane and platinum chemotherapy (McGuire et al., 1996). […] Consequently FAK downregulation and its effects on sensitization of resistant tumors to chemotherapy, using the HeyA8-MDR cell line (FIG. 13C) was assessed. Therapy was started 7 days after injection of tumor cells into nude mice according to the 5 groups outlined above.

| Substance | FAK expression at the conclusion of the therapy studies (FAK) | FAK expression (FAK; single dose) | efficacy compared with empty liposomes (SKOV3ip1 cells) | Incidence (%) (SKOV3ip1 cells) | No. Nodules (SKOV3ip1 cells) | reduction of tumors compared with empty liposomes (HeyA8 cells) | Incidence (%) (HeyA8 cells) | No. Nodules (HeyA8 cells) | Incidence (%) (HeyA8-MDR cells) | No. Nodules (HeyA8-MDR cells) | reduction in FAK levels (FAK; HeyA8 tumors, within 48 hours of a single dose in DOPC, Western blot) [%] | persistence of FAK reduction (FAK; single dose in DOPC) | recovery of FAK expression (FAK; single treatment in DOPC) | reduction in tumor growth compared to control (HeyA8-MDR cells) |
| --- | --- | --- | --- | --- | --- | --- | --- | --- | --- | --- | --- | --- | --- | --- |
| control siRNA: sense r(UUUUCCGAACGUGUCACGU)dTT, antisense r(ACGUGACACGUUCGGAGAA)dTT, no homology with human mRNA; in vivo in DOPC (sense UUUUCCGAACGUGUCACGUTT; antisense ACGUGACACGUUCGGAGAATT; sugars from the 5' end r19 d2, backbone not given here) | not suppressed | not affected | not effective against SKOV3ip1 tumors | 100 | 15 | about 39% | 100 | 4.0 | 90 | 4.4 | – | – | – | – |
| FAK siRNA: sense r(CCACCUGGGCCAGUAUUAU)d(TT), antisense r(AUAAUACUGGCCCAGGUGG)d(TT); for in vivo delivery incorporated into DOPC (sense CCACCUGGGCCAGUAUUAUTT; antisense AUAAUACUGGCCCAGGUGGTT; sugars from the 5' end r19 d2, backbone not given here) | sustained suppression of FAK expression | – | – | 70 | 3.7 | – | 70 | 1.7 | 70 | 2.1 | > 80 | at least 4 days | began to return to basal levels by 6 days | about 44% |
